Paper PMC6164518 (Marine Drugs, 2018)

What was measured:
Electric eel AChE = biological target: T1, Electric eel AChE (Electrophorus electricus, UniProt O42275); assay: biochemical; conditions: AChE from electric eel; mean ± SD from three separate experiments; read-out: IC50 EeAChE
T1 construct: purchased Sigma-Aldrich (Steinheim, Germany)
Method: (§1) The AChE and BChE inhibitory activities of compounds were determined by using a slightly modified Ellman’s method. Electric eel AChE, equine serum BChE, 5,5′-dithiobis(2-nitrobenzoic acid) (DTNB), phosphate buffer solution (PBS, pH 8.0), acetylthiocholine (ATC) iodide, and butyrylthiocholine (BUC) iodide were purchased from Sigma-Aldrich (Steinheim, Germany). […] Enzyme solutions were prepared at 2.0 U/mL in 2-mL aliquots. The assay medium consisted of 10 μL of enzyme, 40 μL of PBS, 20 μL of 0.01 M DTNB, and 10 μL of tested compound. Assayed solutions of tested compounds were pre-incubated with corresponding ChE for 5 min. The reaction was initiated by the addition of 20 μL of 0.01 M substrate (ATC or BUC). The activity was determined by measuring the increase in absorbance at 410 nm at 37 °C in 2-min intervals using Tecan Spark multimode microplate reader (Mannedorf, Switzerland). The percentage of inhibition (I) was calculated from the measured data as follows: I = (Ac − Ai)/Ac × 100%, where Ai and Ac represent the change in the absorbance in the presence of an inhibitor and without an inhibitor, respectively.

equine serum BChE = biological target: T2, equine serum BChE (Equus caballus, UniProt P81908); assay: biochemical; conditions: BChE from equine serum; mean ± SD from three separate experiments; read-out: IC50 eqBChE
T2 construct: purchased Sigma-Aldrich (Steinheim, Germany); host or cells: equine serum
T2 sequence (P81908 whole entry): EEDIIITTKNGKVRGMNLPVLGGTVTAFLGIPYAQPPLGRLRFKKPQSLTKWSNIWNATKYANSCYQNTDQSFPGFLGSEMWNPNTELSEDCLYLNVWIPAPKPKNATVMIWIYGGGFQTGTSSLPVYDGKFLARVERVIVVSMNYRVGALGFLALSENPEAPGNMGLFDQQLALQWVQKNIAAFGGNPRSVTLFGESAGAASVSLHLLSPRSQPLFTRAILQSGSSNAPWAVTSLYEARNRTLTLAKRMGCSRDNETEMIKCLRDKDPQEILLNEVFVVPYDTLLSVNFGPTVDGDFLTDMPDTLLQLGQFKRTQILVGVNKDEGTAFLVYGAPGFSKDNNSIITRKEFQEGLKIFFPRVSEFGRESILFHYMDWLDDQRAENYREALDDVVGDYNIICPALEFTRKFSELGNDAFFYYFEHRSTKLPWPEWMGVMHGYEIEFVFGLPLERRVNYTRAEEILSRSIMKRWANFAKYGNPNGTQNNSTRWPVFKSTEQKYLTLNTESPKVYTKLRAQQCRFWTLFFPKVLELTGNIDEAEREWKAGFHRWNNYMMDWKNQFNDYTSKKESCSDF
Method: as §1

Aβ1–42 = biological target: T3, Aβ1–42 (Homo sapiens, UniProt P05067); assay: Inhibition of self-induced Aβ1–42 aggregation (ThT fluorescence); assay type: biochemical; conditions: Aβ1–42 2.5 µM, compound 10 µM; mean ± SD of three experiments
T3 construct: pre-treated Aβ1–42 (GL Biochem Ltd., Shanghai, China) was dissolved in DMSO; purchased GL Biochem Ltd., Shanghai, China
T3 sequence (P05067 672-713 limits assumed): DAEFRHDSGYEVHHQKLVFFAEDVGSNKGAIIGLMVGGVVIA
Method: In order to investigate the inhibition of compounds on Aβ1–42 self-aggregation, a ThT-based fluorometric assay was performed. 1,1,1,3,3,3-hexafluoro-2-propanol (HFIP) pre-treated Aβ1–42 (GL Biochem Ltd., Shanghai, China) was dissolved in DMSO to make a 200 µM stock solution. The stock solution was centrifuged at the speed of 13,500 rpm for 10 min. The above supernatant was used for experiments. The tested compounds were dissolved in DMSO at concentrations of 0.8 mM. A screening assay for the tested compounds to inhibit A aggregation was performed by measuring ThT fluorescence emission. Compounds (2 µL) and 2 µL of 200 µM Aβ1–42 were added into 76 µL of phosphate-buffered saline (PBS at pH 7.4) in a 96-well plate. After incubation for 24 h at room temperature, 80 µL of 5 µM of ThT solution (in 50 mM of glycine-NaOH at pH 8.5) was added to the reaction solution. Fluorescence emission was measured at 490 nm with an excitation wavelength of 450 nm on a Tecan Spark multimode microplate reader. […] The fluorescence intensities were compared, and the % inhibition was calculated by the following equation: 100 − [(Fi − Fb)/(Fo − Fb) × 100], where Fi, Fo and Fb are the fluorescence intensities obtained for Aβ aggregation in the presence of inhibitors Aβ1–42 and ThT; in the presence of Aβ1–42 and THT but no inhibitors; and the blanks containing ThT only.

Aβ1–42 and AChE = biological target: T4, Aβ1–42 and AChE (Electrophorus electricus, UniProt O42275); assay: Inhibition of AChE-induced Aβ1–42 aggregation (ThT fluorescence); assay type: biochemical; conditions: Aβ1–42 2.5 µM, AChE 0.2 U/mL, compound 8 µM; mean ± SD of three experiments
T4 construct: HFIP pre-treated Aβ1–42 (GL Biochem Ltd., shanghai, China) was dissolved in DMSO; purchased GL Biochem Ltd. (Aβ1–42)
T4 sequence (O42275 24-633): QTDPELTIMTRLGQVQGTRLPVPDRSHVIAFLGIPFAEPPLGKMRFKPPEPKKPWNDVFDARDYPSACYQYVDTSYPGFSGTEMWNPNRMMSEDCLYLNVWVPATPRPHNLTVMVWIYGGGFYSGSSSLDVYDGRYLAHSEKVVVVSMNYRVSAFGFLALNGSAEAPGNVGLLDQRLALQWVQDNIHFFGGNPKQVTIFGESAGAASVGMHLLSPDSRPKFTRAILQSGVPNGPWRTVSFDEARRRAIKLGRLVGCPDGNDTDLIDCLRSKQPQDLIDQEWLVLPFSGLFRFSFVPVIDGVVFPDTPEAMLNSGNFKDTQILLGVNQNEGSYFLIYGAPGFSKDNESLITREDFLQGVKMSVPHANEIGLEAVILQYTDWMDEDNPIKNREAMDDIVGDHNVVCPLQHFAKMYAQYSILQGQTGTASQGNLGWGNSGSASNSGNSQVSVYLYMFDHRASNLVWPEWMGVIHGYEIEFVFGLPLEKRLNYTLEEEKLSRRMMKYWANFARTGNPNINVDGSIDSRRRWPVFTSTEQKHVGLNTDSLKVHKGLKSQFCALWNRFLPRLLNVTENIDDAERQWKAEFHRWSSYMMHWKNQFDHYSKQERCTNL
Method: The stock solution was centrifuged at the speed of 13,500 rpm for 10 min. The above supernatant was used for experiments. […] Fluorescence emission was measured at 490 nm with an excitation wavelength of 450 nm on a Tecan Spark multimode microplate reader.

in vitro = conditions: human
Method: Thus, to verify the hepatotoxicity of 1 and 12j, a 3-(4,5-dimethylthiazol-2-yl)-2,5-diphenyltetrazolium bromide (MTT) assay on the human hepatoma cell line (HepG2) was carried out.
The cytotoxicity of selected compounds was evaluated on HepG2 cells. Cells were inoculated into 96-well plates. After incubation for 24 h, the cells were treated with different concentrations of tested compounds for 24 h, and then were incubated with 10 μL of 3-(4,5-dimethylthiazol-2-yl)-2,5-diphenyltetrazolium bromide (MTT) at 37 °C for 2 h. The formazan dye product was measured by the absorbance at 490 nm on a Tecan Spark multimode microplate reader.

AChE = tested on: AChE; set-up: method as in PMID 24547899; conditions: read-out: AChE IC50 (reported value); cited from earlier work

T1 sequence (O42275 24-633): as above

SMILES: COc1c(Br)cc(CC(=O)NCCCCC[N+](C)(C)C)cc1Br [Compound 1, Pulmonarin B]
- IC50 (Electric eel AChE): 37 ± 2.11 µM
- IC50 (equine serum BChE): 30.7 ± 1.44 µM
- Inhibition of Aβ Aggregation (%) Self-Induced (Aβ1–42): 29.78 ± 1.45%
- Inhibition of Aβ Aggregation (%) AChE-Induced (Aβ1–42 and AChE): 27.60 ± 1.96%
- IC50 at 24 h (in vitro): > 80 µM
- IC50 (AChE): 36 µM
